“And” between values parts separate entries of the source, which are not always exact repeats. Identical values can stand only once.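 Growth conditions: 96-well plates. Treatment: test compound, 48 hours, 5 concentrations. Analysis: linear interpolation between bracketing concentrations; unreached endpoints set to highest concentration. At the GI50, growth is halved. TGI: concentration producing complete growth inhibition.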
Each compound was assayed on SNB-75 CNS (assay: DTP human tumour cell line panel, 48 h).

SMILES	TGI	GI50
NC(=S)N/N=C(\CC1OC(=O)c2ccccc21)c1ccc(Cl)cc1 (stereo unspecified)	> 100 µM	
COc1ccc2occ(CCC(=O)O)c2c1	> 100 µM	
COC(=O)C(C(=O)c1ccccc1)C(C(=O)C(=O)Nc1ccc(OC)cc1OC)C(=O)C(=O)c1ccc(C)cc1 (stereo unspecified)	> 100 µM	
CC1(C)COC(C2(C)C(=O)C=C(c3ccccc3)c3ccccc32)=N1 (stereo unspecified)	> 100 µM	
O=C(Nc1ccn(CCO)c(=O)n1)c1ccccc1	> 100 µM	
O=C1CCC2(c3ccc(Cl)cc3)Nc3ncccc3N12 (stereo unspecified)	> 100 µM	
COc1ccc(Sc2[nH]c(C(C)=O)c3ccccc23)cc1	51.3 µM	10.7 µM
C#CCOc1cccc(-c2ncc3cc(NC(=O)CCl)ccc3n2)c1	15.4 µM	2.22 µM
CC12C/C(=C\c3ccccc3)C(=O)C3C1CCCC32	> 100 µM	
OC(CC1SCCCS1)c1ccccc1 (stereo unspecified)	> 100 µM	
CCCCOC(=O)CNC(=O)OC/C=C/C#CC#C/C=C/COC(=O)NCC(=O)OCCCC	> 10 µM and 88.8 µM	> 10 µM
COc1ccc(OC)c2c1[nH]c(=O)c1c3ccccc3cn21	2.83 µM	1.44 µM
COc1cccc2c1C(=O)c1c(O)c3c(c(O)c1C2=O)C[C@@](O)(C(=O)CO)C[C@@H]3OC1CC(N)CC(C)O1 (stereo partly specified)	0.195 µM and 0.161 µM	0.00885 µM and 0.047 µM
O=C1c2ccccc2C(=O)N1CCn1ccc(NC(c2ccccc2)(c2ccccc2)c2ccccc2)nc1=O	74 µM	
CC(C)(C)NNC(=O)CCn1[nH]c(=O)c(Cl)c(Cl)c1=O	> 100 µM	
O=CCC1CCCCC1	> 100 µM	
Nc1ccc([N+](=O)[O-])cc1N=C/C=C/c1ccccc1	96.6 µM	10.8 µM
Cc1cc(Nc2ccc(NC(=O)c3ccc(Nc4ccnc5ccccc45)cc3)cc2)nc(N)n1	43 µM	12.2 µM
CCN(CC)CCCN1CCc2c([nH]c3ccccc23)C1c1cccnc1 (stereo unspecified)	> 100 µM	

SMILES	TGI	GI50
COC(=O)C1c2cc3c(cc2C(OC2OC(C)C(OC)C(C)(OC)C2OC)CC1(C)O)C(=O)c1c(O)cc2c(c1C3=O)OC1OC2(C)C(O)C([N+](C)(C)[O-])C1O (stereo unspecified)	1.86 µM	
CNCc1ccccc1-c1csc([C@@H](C)Nc2nc(C)nc3cc(OC)c(OC)cc23)c1	2.65 µM	1.33 µM
Nc1nc(Cl)cc(NCCCCCCCCNc2cc(Cl)nc(N)n2)n1	74.4 µM	
O=C1CCC(Cl)=CC2CCCN12 (stereo unspecified)	> 100 µM	
c1ccc2cc(-c3cc4ccccc4s3)ccc2c1	93.7 µM	
CCOC(=O)C(C#N)C1=CC(=O)C(=O)c2ccc(OC)cc21 (stereo unspecified)	58.5 µM	
O=C(O)COc1ccc2c(=O)c3sc4c(=O)c5ccccc5c(=O)c4c3c(=O)c2c1	11.7 µM	2.06 µM
Cc1ccc(S(=O)(=O)N(C=O)N=C2CCN(Cc3ccccc3)CC2)cc1	> 100 µM	
CC(C)C(CCl)NC(=O)c1cccc(C(=O)N[C@H](CCl)C(C)C)n1 (stereo in doubt)	> 100 µM	
CCC(=O)CC(=O)CCC(=O)Nc1cc(C)ccc1C	> 100 µM	
CC[As](CC)SC[C@H](C)C(=O)N1CCC[C@H]1C(=O)O	0.628 µM	0.0796 µM
NC(N)=N/N=C/c1c(-c2ccsc2)nc2sccn12	26.4 µM	13.4 µM
Oc1ccc(Nc2ncnc3c2sc2ncccc23)cc1	7.35 µM	0.0595 µM
O=c1/c(=C/c2ccccc2[N+](=O)[O-])sc2nnc(-c3ccco3)n12	84.7 µM	
CC(=O)CCn1ncc(Cl)c(Cl)c1=O	72 µM	
CN1CC(=O)N2Cc3ccccc3-n3cccc3C2C1 (stereo unspecified)	> 100 µM	
Cc1ccc(SC2c3ccc(C)cc3Oc3nc(N)c(C#N)c(N)c32)cc1 (stereo unspecified)	4.53 µM	1.5 µM
Cc1cn2c(=O)c3ncn(C4OC(CO)C(O)C4O)c3n(C)c2n1 (stereo unspecified)	> 100 µM	

These compounds were tested on HCT-15 colon (assay: DTP human tumour cell line panel, 48 h).

SMILES	GI50	TGI
Clc1ccc2c(c1)[nH]c1c2nc2ccccn21	40.8 µM and 20 µM	> 100 µM and 38.5 µM
CCOC(=O)c1cnc2c(ccc3[nH]n(C)nc32)c1=O		> 100 µM
NC(=S)N/N=C(\CC1OC(=O)c2ccccc21)c1ccc(Cl)cc1 (stereo unspecified)		> 100 µM
COc1ccc2occ(CCC(=O)O)c2c1		> 100 µM
COC(=O)C(C(=O)c1ccccc1)C(C(=O)C(=O)Nc1ccc(OC)cc1OC)C(=O)C(=O)c1ccc(C)cc1 (stereo unspecified)		> 100 µM
CC1(C)COC(C2(C)C(=O)C=C(c3ccccc3)c3ccccc32)=N1 (stereo unspecified)		> 100 µM
O=C(Nc1ccn(CCO)c(=O)n1)c1ccccc1		> 100 µM
O=C1CCC2(c3ccc(Cl)cc3)Nc3ncccc3N12 (stereo unspecified)		> 100 µM
COc1ccc(Sc2[nH]c(C(C)=O)c3ccccc23)cc1	11.5 µM	31 µM
CC12C/C(=C\c3ccccc3)C(=O)C3C1CCCC32		> 100 µM
OC(CC1SCCCS1)c1ccccc1 (stereo unspecified)		> 100 µM
CCCCOC(=O)CNC(=O)OC/C=C/C#CC#C/C=C/COC(=O)NCC(=O)OCCCC		> 10 µM
COc1ccc(OC)c2c1[nH]c(=O)c1c3ccccc3cn21	0.693 µM	2.42 µM
COc1cccc2c1C(=O)c1c(O)c3c(c(O)c1C2=O)C[C@@](O)(C(=O)CO)C[C@@H]3OC1CC(N)CC(C)O1 (stereo partly specified)	0.183 µM and 0.125 µM	3.57 µM and 2.53 µM
O=C1c2ccccc2C(=O)N1CCn1ccc(NC(c2ccccc2)(c2ccccc2)c2ccccc2)nc1=O		62.6 µM
CC(C)(C)NNC(=O)CCn1[nH]c(=O)c(Cl)c(Cl)c1=O		> 100 µM
O=CCC1CCCCC1		> 100 µM
CCC12CCCN(Cc3ccccc3)C1c1c(n(C)c3ccccc13)CC2 (stereo unspecified)		> 253 µM
Nc1ccc([N+](=O)[O-])cc1N=C/C=C/c1ccccc1	13.5 µM	> 100 µM
Cc1cc(Nc2ccc(NC(=O)c3ccc(Nc4ccnc5ccccc45)cc3)cc2)nc(N)n1	6.16 µM	> 100 µM
CCN(CC)CCCN1CCc2c([nH]c3ccccc23)C1c1cccnc1 (stereo unspecified)		> 100 µM

SMILES	GI50	TGI
COC(=O)C1c2cc3c(cc2C(OC2OC(C)C(OC)C(C)(OC)C2OC)CC1(C)O)C(=O)c1c(O)cc2c(c1C3=O)OC1OC2(C)C(O)C([N+](C)(C)[O-])C1O (stereo unspecified)		> 100 µM
CNCc1ccccc1-c1csc([C@@H](C)Nc2nc(C)nc3cc(OC)c(OC)cc23)c1	1.61 µM	3.55 µM
Nc1nc(Cl)cc(NCCCCCCCCNc2cc(Cl)nc(N)n2)n1		> 100 µM
CC(C)N(C(=O)C12C3C4C1C1C4(C#N)C3C12C#N)C(C)C (stereo unspecified)		> 100 µM
O=C1CCC(Cl)=CC2CCCN12 (stereo unspecified)		> 100 µM
c1ccc2cc(-c3cc4ccccc4s3)ccc2c1		> 100 µM
CCOC(=O)C(C#N)C1=CC(=O)C(=O)c2ccc(OC)cc21 (stereo unspecified)		59.8 µM
COc1cc(OCc2cccc(-c3ccc(C(O)c4nccs4)cc3)c2C)cc(OC)c1C=O (stereo unspecified)	1.79 µM	4.4 µM
O=C(O)COc1ccc2c(=O)c3sc4c(=O)c5ccccc5c(=O)c4c3c(=O)c2c1	4.41 µM	18.2 µM
Cc1ccc(S(=O)(=O)N(C=O)N=C2CCN(Cc3ccccc3)CC2)cc1		> 100 µM
CC(C)C(CCl)NC(=O)c1cccc(C(=O)N[C@H](CCl)C(C)C)n1 (stereo in doubt)		> 100 µM
CCC(=O)CC(=O)CCC(=O)Nc1cc(C)ccc1C		> 100 µM
CC[As](CC)SC[C@H](C)C(=O)N1CCC[C@H]1C(=O)O	0.027 µM	0.194 µM
NC(N)=N/N=C/c1c(-c2ccsc2)nc2sccn12	17.1 µM	31.7 µM
Oc1ccc(Nc2ncnc3c2sc2ncccc23)cc1	0.088 µM	> 100 µM
CC(=O)OC1COC(Oc2c(C)c3c4c(c2O)[C@@H](C)CC[C@@H]4[C@@H](C)C[C@H]3C=C(C)C)C(O)C1OC(C)=O (stereo partly specified)	5.76 µM	21.2 µM
O=c1/c(=C/c2ccccc2[N+](=O)[O-])sc2nnc(-c3ccco3)n12		75.8 µM
CC(=O)CCn1ncc(Cl)c(Cl)c1=O		20.5 µM
CN1CC(=O)N2Cc3ccccc3-n3cccc3C2C1 (stereo unspecified)		> 100 µM
Cc1ccc(SC2c3ccc(C)cc3Oc3nc(N)c(C#N)c(N)c32)cc1 (stereo unspecified)	1.72 µM	3.23 µM
Cc1cn2c(=O)c3ncn(C4OC(CO)C(O)C4O)c3n(C)c2n1 (stereo unspecified)		> 100 µM

From PubChem BioAssay (NCI)
